Tests used:
Assay type in all cases: in vivo
[1] = test system: barnyardgrass (Echinochloa crus-galli); experiment: Test G Pre-Emergence Protocol; settings: Echinochloa crus-galli, pre-emergence, 312 h, evaluated after 13 days; for pest or weed control at 15.625 g/ha: 15.625 g ai/ha; for pest or weed control at 15.625 g/ha / pest or weed control at 250 g/ha: read-out: Barnyardgrass damage rating (100=total damage to plant; 0=no damage to plant); for pest or weed control at 62.5 g/ha: 62.5 g ai/ha, 100=total damage to plant, 0=no damage to plant, read-out: Barnyardgrass damage rating; for pest or weed control at 250 g/ha: 250 g ai/ha
How it was run: (§1)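 Spraying took place one day after sowing, at 15.625, 62.5 or 250 g/ha, using an acetone/water (50:50) spray solution containing 0.5% Tween 20. Plants were kept under glasshouse conditions (24/16 °C, 14 h light, 65% humidity, watered twice daily), and injury was rated 0–100 at day 13.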

corn (Zea mays) [2] = experiment: Test G Pre-Emergence Protocol; settings: Zea mays, pre-emergence, 312 h, evaluated after 13 days; for plant injury at 15.625 g/ha: 15.625 g ai/ha; for plant injury at 15.625 g/ha / plant injury at 250 g/ha: read-out: Corn damage rating (100=total damage to plant; 0=no damage to plant); for plant injury at 62.5 g/ha: 62.5 g ai/ha, 100=total damage to plant, 0=no damage to plant, read-out: Corn damage rating; for plant injury at 250 g/ha: 250 g ai/ha
How it was run: as §1

[3] = test system: giant foxtail (Setaria faberi); experiment: Test G Pre-Emergence Protocol; settings: Setaria faberi, pre-emergence, 312 h, evaluated after 13 days; for pest or weed control at 15.625 g/ha: 15.625 g ai/ha; for pest or weed control at 15.625 g/ha / pest or weed control at 250 g/ha: read-out: Foxtail, Giant damage rating (100=total damage to plant; 0=no damage to plant); for pest or weed control at 62.5 g/ha: 62.5 g ai/ha, 100=total damage to plant, 0=no damage to plant, read-out: Foxtail, Giant damage rating; for pest or weed control at 250 g/ha: 250 g ai/ha
How it was run: as §1

[4] = test system: ivy-leaved morning glory (Ipomoea hederacea); experiment: Test G Pre-Emergence Protocol; settings: Ipomoea, pre-emergence, 312 h, evaluated after 13 days; for pest or weed control at 15.625 g/ha: 15.625 g ai/ha; for pest or weed control at 15.625 g/ha / pest or weed control at 250 g/ha: read-out: Morningglory, Ivy-leaved damage rating (100=total damage to plant; 0=no damage to plant); for pest or weed control at 62.5 g/ha: 62.5 g ai/ha, 100=total damage to plant, 0=no damage to plant, read-out: Morningglory, Ivy-leaved damage rating; for pest or weed control at 250 g/ha: 250 g ai/ha
How it was run: as §1

[5] = test system: redroot pigweed (Amaranthus retroflexus); experiment: Test G Pre-Emergence Protocol; settings: Amaranthus retroflexus, pre-emergence, 312 h, evaluated after 13 days; for pest or weed control at 15.625 g/ha: 15.625 g ai/ha; for pest or weed control at 15.625 g/ha / pest or weed control at 250 g/ha: read-out: Pigweed, Redroot damage rating (100=total damage to plant; 0=no damage to plant); for pest or weed control at 62.5 g/ha: 62.5 g ai/ha, 100=total damage to plant, 0=no damage to plant, read-out: Pigweed, Redroot damage rating; for pest or weed control at 250 g/ha: 250 g ai/ha
How it was run: as §1

[6] = test system: velvetleaf (Abutilon theophrasti); experiment: Test G Pre-Emergence Protocol; settings: Abutilon theophrasti, pre-emergence, 312 h, evaluated after 13 days; for pest or weed control at 15.625 g/ha: 15.625 g ai/ha; for pest or weed control at 15.625 g/ha / pest or weed control at 250 g/ha: read-out: Velvetleaf damage rating (100=total damage to plant; 0=no damage to plant); for pest or weed control at 62.5 g/ha: 62.5 g ai/ha, 100=total damage to plant, 0=no damage to plant, read-out: Velvetleaf damage rating; for pest or weed control at 250 g/ha: 250 g ai/ha
How it was run: as §1

[7] = test system: barnyardgrass (Echinochloa crus-galli); experiment: Test G Post-Emergence Protocol; settings: Echinochloa crus-galli, post-emergence, 312 h, read-out: Barnyardgrass damage rating; for pest or weed control at 15.625 g/ha: 15.625 g ai/ha, evaluated after 13 days (100=total damage to plant; 0=no damage to plant); for pest or weed control at 62.5 g/ha: 62.5 g ai/ha; for pest or weed control at 62.5 g/ha / pest or weed control at 250 g/ha: evaluated after 13 days, 100=total damage to plant, 0=no damage to plant; for pest or weed control at 250 g/ha: 250 g ai/ha
How it was run: (§2)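 Values are percent visual injury at 13 days after treatment (0 none, 100 total). Treatment was a post-emergence spray at 15.625, 62.5 or 250 g/ha on 8-day-old pot plants kept at 24/16 °C.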

corn (Zea mays) [8] = experiment: Test G Post-Emergence Protocol; settings: Zea mays, post-emergence, 312 h, read-out: Corn damage rating; for plant injury at 15.625 g/ha: 15.625 g ai/ha, evaluated after 13 days (100=total damage to plant; 0=no damage to plant); for plant injury at 62.5 g/ha: 62.5 g ai/ha; for plant injury at 62.5 g/ha / plant injury at 250 g/ha: evaluated after 13 days, 100=total damage to plant, 0=no damage to plant; for plant injury at 250 g/ha: 250 g ai/ha
How it was run: as §2

[9] = test system: giant foxtail (Setaria faberi); experiment: Test G Post-Emergence Protocol; settings: Setaria faberi, post-emergence, 312 h, read-out: Foxtail, Giant damage rating; for pest or weed control at 15.625 g/ha: 15.625 g ai/ha, evaluated after 13 days (100=total damage to plant; 0=no damage to plant); for pest or weed control at 62.5 g/ha: 62.5 g ai/ha; for pest or weed control at 62.5 g/ha / pest or weed control at 250 g/ha: evaluated after 13 days, 100=total damage to plant, 0=no damage to plant; for pest or weed control at 250 g/ha: 250 g ai/ha
How it was run: as §2

[10] = test system: ivy-leaved morning glory (Ipomoea hederacea); experiment: Test G Post-Emergence Protocol; settings: Ipomoea, post-emergence, 312 h, read-out: Morningglory, Ivy-leaved damage rating; for pest or weed control at 15.625 g/ha: 15.625 g ai/ha, evaluated after 13 days (100=total damage to plant; 0=no damage to plant); for pest or weed control at 62.5 g/ha: 62.5 g ai/ha; for pest or weed control at 62.5 g/ha / pest or weed control at 250 g/ha: evaluated after 13 days, 100=total damage to plant, 0=no damage to plant; for pest or weed control at 250 g/ha: 250 g ai/ha
How it was run: as §2

[11] = test system: redroot pigweed (Amaranthus retroflexus); experiment: Test G Post-Emergence Protocol; settings: Amaranthus retroflexus, post-emergence, 312 h, read-out: Pigweed, Redroot damage rating; for pest or weed control at 15.625 g/ha: 15.625 g ai/ha, evaluated after 13 days (100=total damage to plant; 0=no damage to plant); for pest or weed control at 62.5 g/ha: 62.5 g ai/ha; for pest or weed control at 62.5 g/ha / pest or weed control at 250 g/ha: evaluated after 13 days, 100=total damage to plant, 0=no damage to plant; for pest or weed control at 250 g/ha: 250 g ai/ha
How it was run: as §2

[12] = test system: velvetleaf (Abutilon theophrasti); experiment: Test G Post-Emergence Protocol; settings: Abutilon theophrasti, post-emergence, 312 h, read-out: Velvetleaf damage rating; for pest or weed control at 15.625 g/ha: 15.625 g ai/ha, evaluated after 13 days (100=total damage to plant; 0=no damage to plant); for pest or weed control at 62.5 g/ha: 62.5 g ai/ha; for pest or weed control at 62.5 g/ha / pest or weed control at 250 g/ha: evaluated after 13 days, 100=total damage to plant, 0=no damage to plant; for pest or weed control at 250 g/ha: 250 g ai/ha
How it was run: as §2

Row | Structure (SMILES) | pest or weed control at 15.625 g/ha [1] | pest or weed control at 62.5 g/ha [1] | pest or weed control at 250 g/ha [1] | plant injury at 15.625 g/ha (corn (Zea mays) [2]) | plant injury at 62.5 g/ha (corn (Zea mays) [2]) | plant injury at 250 g/ha (corn (Zea mays) [2]) | pest or weed control at 15.625 g/ha [3] | pest or weed control at 62.5 g/ha [3] | pest or weed control at 250 g/ha [3] | pest or weed control at 15.625 g/ha [4] | pest or weed control at 62.5 g/ha [4] | pest or weed control at 250 g/ha [4] | pest or weed control at 15.625 g/ha [5] | pest or weed control at 62.5 g/ha [5] | pest or weed control at 250 g/ha [5] | pest or weed control at 15.625 g/ha [6] | pest or weed control at 62.5 g/ha [6] | pest or weed control at 250 g/ha [6] | pest or weed control at 15.625 g/ha [7] | pest or weed control at 62.5 g/ha [7] | further results
1 | CN1C[C@@H](c2cccc(Oc3ccc(F)cc3)c2)[C@H](C(=O)Nc2cccc(F)n2)C1=O (racemic) [Compound 1829] | 60% | 70% | 90% | 0% | 10% | 60% | 70% | 80% | 90% | 0% | 0% | 0% | 0% | 0% | 30% | 0% | 0% | 20% | 0% | 60% | pest or weed control at 250 g/ha [7]: 70%; plant injury at 15.625 g/ha (corn (Zea mays) [8]): 20%; plant injury at 62.5 g/ha (corn (Zea mays) [8]): 0%; plant injury at 250 g/ha (corn (Zea mays) [8]): 60%; pest or weed control at 15.625 g/ha [9]: 70%; pest or weed control at 62.5 g/ha [9]: 80%; pest or weed control at 250 g/ha [9]: 80%; pest or weed control at 15.625 g/ha [10]: 20%; pest or weed control at 62.5 g/ha [10]: 20%; pest or weed control at 250 g/ha [10]: 30%; pest or weed control at 15.625 g/ha [11]: 0%; pest or weed control at 62.5 g/ha [11]: 20%; pest or weed control at 250 g/ha [11]: 60%; pest or weed control at 15.625 g/ha [12]: 0%; pest or weed control at 62.5 g/ha [12]: 0%; pest or weed control at 250 g/ha [12]: 20%
2 | Cc1cc([C@H]2CN(C)C(=O)[C@@H]2C(=O)Nc2cccc(F)n2)cc(C(F)(F)F)c1 (racemic) [Compound 1801] | 40% | 80% | 90% | 10% | 40% | 80% | 80% | 90% | 90% | 0% | 0% | 40% | 0% | 20% | 40% | 0% | 10% | 20% | 20% | 60% | pest or weed control at 250 g/ha [7]: 70%; plant injury at 15.625 g/ha (corn (Zea mays) [8]): 10%; plant injury at 62.5 g/ha (corn (Zea mays) [8]): 70%; plant injury at 250 g/ha (corn (Zea mays) [8]): 80%; pest or weed control at 15.625 g/ha [9]: 70%; pest or weed control at 62.5 g/ha [9]: 80%; pest or weed control at 250 g/ha [9]: 80%; pest or weed control at 15.625 g/ha [10]: 0%; pest or weed control at 62.5 g/ha [10]: 10%; pest or weed control at 250 g/ha [10]: 50%; pest or weed control at 15.625 g/ha [11]: 0%; pest or weed control at 62.5 g/ha [11]: 0%; pest or weed control at 250 g/ha [11]: 40%; pest or weed control at 15.625 g/ha [12]: 0%; pest or weed control at 62.5 g/ha [12]: 0%; pest or weed control at 250 g/ha [12]: 0%
3 | C=C(C)c1cccc([C@@H]2CN(C)C(=O)[C@H]2C(=O)Nc2cccc(F)c2C)c1 (racemic) [Compound 1828] | 70% | 80% | 90% | 0% | 10% | 70% | 80% | 90% | 90% | 0% | 0% | 30% | 0% | 0% | 0% | 0% | 0% | 30% | 30% | 80% | pest or weed control at 250 g/ha [7]: 80%; plant injury at 15.625 g/ha (corn (Zea mays) [8]): 0%; plant injury at 62.5 g/ha (corn (Zea mays) [8]): 10%; plant injury at 250 g/ha (corn (Zea mays) [8]): 70%; pest or weed control at 15.625 g/ha [9]: 70%; pest or weed control at 62.5 g/ha [9]: 80%; pest or weed control at 250 g/ha [9]: 80%; pest or weed control at 15.625 g/ha [10]: 20%; pest or weed control at 62.5 g/ha [10]: 60%; pest or weed control at 250 g/ha [10]: 70%; pest or weed control at 15.625 g/ha [11]: 0%; pest or weed control at 62.5 g/ha [11]: 0%; pest or weed control at 250 g/ha [11]: 20%; pest or weed control at 15.625 g/ha [12]: 0%; pest or weed control at 62.5 g/ha [12]: 20%; pest or weed control at 250 g/ha [12]: 10%

Reference: patent US12077503B2, “Substituted cyclic amides and their use as herbicides” (FMC CORPORATION, priority 2015, dated 2024)
